Legend:
Assay type in all cases: cell-based
[1] = target: T1, OR5A2_variant 2 (Homo sapiens, UniProt Q8NGI9, P172L); assay: Luciferase reporter concentration-response analysis on haplotype OR5A2_variant 2 (P172L); conditions: CRE-luciferase; empty vector pEFIBRHO as control
T1 construct: (P172L, OR5A2_variant 2); expressed in transfected cells; host or cells: HEK293T-RTP1A1/RTP2
T1 sequence (Q8NGI9 1-324 P172L): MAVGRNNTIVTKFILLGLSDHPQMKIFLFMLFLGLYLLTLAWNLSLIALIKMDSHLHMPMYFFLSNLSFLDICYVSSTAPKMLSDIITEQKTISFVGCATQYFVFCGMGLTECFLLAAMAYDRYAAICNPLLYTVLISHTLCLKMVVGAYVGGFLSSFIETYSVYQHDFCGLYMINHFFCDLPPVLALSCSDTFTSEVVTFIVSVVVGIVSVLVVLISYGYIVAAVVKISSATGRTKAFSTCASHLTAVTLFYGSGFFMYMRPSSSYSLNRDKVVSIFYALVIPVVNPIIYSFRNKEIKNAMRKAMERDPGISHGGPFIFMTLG
Experimental: HEK293T-RTP1A1/RTP2 cells were maintained in minimal essential medium (EMEM, Lonza) containing 10% fetal bovine serum (M10). These cells were generated by transfecting HEK293T with an expression vector containing the sequences of the chaperone proteins RTP1A1 and RTP2 and a resistance gene to puromycin, using Lipofectamine 2000.
(§1) Odorant molecules were diluted at a concentration of 1 mole/liter (M) into dimethyl sulfoxide (DMSO) to generate stock solutions.
(§2) For concentration-response analysis, serial dilutions of the tested molecules were prepared from stock solutions in EMEM plated into 96-well plates.
(§3) For the initial deorphanisation screening and dose-response analysis, a Luciferase-based gene reporter assay (Promega, Leiden, The Nederlands) was used. Briefly, cells were platted on Poly-D-lysine-coated 96-well and transfected with a plasmid containing the CRE-luciferase and a plasmid containing the olfactory receptor. Sixteen hours after transfection, the culture medium was replaced by serum-free EMEM containing the tested compounds at a determined concentration. After four hours of incubation at 37° C. degree, cells were lysed and processed for luminescence measurement. Luminescene emission was recorded. Results were expressed as luciferase activity (Relative […] Unit (RLU)) or as percentage of the response induced by 10 μM of the adenylate cyclase activator Forskolin. An empty plasmid is used as negative control.
OR genes are highly variable, with many alleles resulting in differences in smell perception from person to person. These differences can be attributed to genetic variations like, for example, nucleotide polymorphisms. […] Amino acids alignment of the 2 haplotypes are represented in FIG. 4.
To test if the substitution could impact the musk sensitivity, luciferase assays were performed as described previously after transfection of both OR5A2 variants. Cells were treated with semi-logarithmic serial dilutions of musk compounds from the four structurally different groups described earlier. In each experiment, an empty vector was used as negative control (pEFIBRHO).

[2] = target: T2, OR2A5 (Homo sapiens, UniProt Q96R48, A202S/A255T/I126V); assay: Luciferase reporter concentration-response analysis on OR2A5; conditions: CRE-luciferase
T2 construct: expressed in transfected cells; host or cells: HEK293T-RTP1A1/RTP2
T2 sequence (Q96R48 1-311 I126V/A202S/A255T): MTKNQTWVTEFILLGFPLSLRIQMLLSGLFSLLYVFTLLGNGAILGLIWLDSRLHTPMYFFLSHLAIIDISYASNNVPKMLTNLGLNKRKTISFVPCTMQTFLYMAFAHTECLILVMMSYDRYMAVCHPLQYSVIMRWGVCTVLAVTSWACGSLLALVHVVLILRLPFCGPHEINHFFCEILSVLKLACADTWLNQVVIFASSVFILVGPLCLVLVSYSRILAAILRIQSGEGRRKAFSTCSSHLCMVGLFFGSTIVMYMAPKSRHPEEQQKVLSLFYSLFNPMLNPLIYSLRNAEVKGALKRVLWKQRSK
Experimental: HEK293T-RTP1A1/RTP2 cells were maintained in minimal essential medium (EMEM, Lonza) containing 10% fetal bovine serum (M10). These cells were generated by transfecting HEK293T with an expression vector containing the sequences of the chaperone proteins RTP1A1 and RTP2 and a resistance gene to puromycin, using Lipofectamine 2000. The recombinant cell population, used in these experiments, was selected by adding 10 μg/ml of puromycin into the culture medium and subsequently subcloned (WO 2014/191047 A1).
as §1, §2, §3
In 1998, Krautwurst and collaborators have provided a model system for the study of ligand specificity and structure-function relationships for olfactory receptors (Krautwurst et al., 1998 Cell 95, 917-26). […] Based on their publication, a chimeric OR5A2_variant 1 olfactory receptor was created containing the TM2-TM7 amino acid sequence of OR5A2_variant 1 flanked by the N-teminal and C-terminal sequence of the olfactory receptor OR2A5 (cf. SEQ ID NO: 12). This chimeric OR5A2_variant 1 receptor shared 86 percent identity with the native OR5A2_variant 1 receptor (FIG. 6A and SEQ ID NO: 10).
To test if the amino acids substitution could impact the musk sensitivity, and specificity and to validate the Krautwurst's model, luciferase assays were performed as described previously after transfection of the chimeric OR5A2_variant 1. Cells were treated with semi-logarithmic serial dilutions of musk compounds from the four structurally different groups described earlier.

[3] = target: T3, OR11A1 (Homo sapiens, UniProt Q9GZK7); assay: Luciferase reporter concentration-response analysis on OR11A1
T3 construct: expressed in transfected cells; host or cells: HEK293T-RTP1A1/RTP2
T3 sequence (Q9GZK7 1-315): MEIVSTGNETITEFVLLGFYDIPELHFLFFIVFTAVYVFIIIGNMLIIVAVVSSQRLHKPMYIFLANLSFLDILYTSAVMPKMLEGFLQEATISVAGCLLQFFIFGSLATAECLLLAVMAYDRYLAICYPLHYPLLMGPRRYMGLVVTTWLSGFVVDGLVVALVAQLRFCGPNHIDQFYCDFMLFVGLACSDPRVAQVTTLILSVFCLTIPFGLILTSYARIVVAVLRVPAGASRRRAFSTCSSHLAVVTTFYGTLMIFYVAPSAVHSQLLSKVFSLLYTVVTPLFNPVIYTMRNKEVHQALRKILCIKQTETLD

CC(=O)c1c(C)c([N+](=O)[O-])c(C(C)(C)C)c([N+](=O)[O-])c1C [Musk Ketone, 4-tert-butyl-2,6-dimethyl-3,5-dinitroacetophenone]
activation of OR5A2_variant 2 (P172L), concentration-response [1]: not activated
activation of OR2A5, concentration-response [2]: but not the OR2A5

Cc1c([N+](=O)[O-])c(C)c([N+](=O)[O-])c(C(C)(C)C)c1[N+](=O)[O-] [Musk Xylene, 1-tert-butyl-3,5-dimethyl-2,4,6-trinitrobenzene]
EC50 [3]: 1.86 µM
activation of OR5A2_variant 2 (P172L), concentration-response [1]: not activated
activation of OR2A5, concentration-response [2]: but not the OR2A5

O=C1CCC/C=C\CCCCCCCCCC1 [Velvione]
activation of OR5A2_variant 2 (P172L), concentration-response [1]: not activated
activation of OR2A5, concentration-response [2]: but not the OR2A5
